pIC50: −log10 of the molar value.
target: Receptor tyrosine-protein kinase erbB-2 (Homo sapiens, UniProt P04626); assay: ErbB Enzyme Assay
Method: The kinases were incubated with 250 nM TK-substrate biotin (CisBio, part of cat #62TK0PEC) at 1 mM ATP along with test compounds in a buffer consisting of 25 mM HEPES, pH 7.4, 10 mM MgCl2, 0.01% Triton X-100, and 2% DMSO in a volume of 8 uL. Compounds were prepared as a three-fold serial dilution in DMSO and added to the assay to give the appropriate final concentration. After 30-minute incubation at 22 C., the reaction was quenched by adding 8 uL of quench solution containing 62.5 nM Sa-XL665 and 0.25x TK-Ab-Cryptate in HTRF detection buffer (all from CisBio, part of cat #62TK0PEC). After a 1-hour incubation at 22 C., the extent of reaction was determined using a PerkinElmer EnVision multimode plate reader via HTRF dual wavelength detection, and the percent of control (POC) was calculated using a ratiometric emission factor.

Receptor tyrosine-protein kinase erbB-2, sequence (P04626 whole entry): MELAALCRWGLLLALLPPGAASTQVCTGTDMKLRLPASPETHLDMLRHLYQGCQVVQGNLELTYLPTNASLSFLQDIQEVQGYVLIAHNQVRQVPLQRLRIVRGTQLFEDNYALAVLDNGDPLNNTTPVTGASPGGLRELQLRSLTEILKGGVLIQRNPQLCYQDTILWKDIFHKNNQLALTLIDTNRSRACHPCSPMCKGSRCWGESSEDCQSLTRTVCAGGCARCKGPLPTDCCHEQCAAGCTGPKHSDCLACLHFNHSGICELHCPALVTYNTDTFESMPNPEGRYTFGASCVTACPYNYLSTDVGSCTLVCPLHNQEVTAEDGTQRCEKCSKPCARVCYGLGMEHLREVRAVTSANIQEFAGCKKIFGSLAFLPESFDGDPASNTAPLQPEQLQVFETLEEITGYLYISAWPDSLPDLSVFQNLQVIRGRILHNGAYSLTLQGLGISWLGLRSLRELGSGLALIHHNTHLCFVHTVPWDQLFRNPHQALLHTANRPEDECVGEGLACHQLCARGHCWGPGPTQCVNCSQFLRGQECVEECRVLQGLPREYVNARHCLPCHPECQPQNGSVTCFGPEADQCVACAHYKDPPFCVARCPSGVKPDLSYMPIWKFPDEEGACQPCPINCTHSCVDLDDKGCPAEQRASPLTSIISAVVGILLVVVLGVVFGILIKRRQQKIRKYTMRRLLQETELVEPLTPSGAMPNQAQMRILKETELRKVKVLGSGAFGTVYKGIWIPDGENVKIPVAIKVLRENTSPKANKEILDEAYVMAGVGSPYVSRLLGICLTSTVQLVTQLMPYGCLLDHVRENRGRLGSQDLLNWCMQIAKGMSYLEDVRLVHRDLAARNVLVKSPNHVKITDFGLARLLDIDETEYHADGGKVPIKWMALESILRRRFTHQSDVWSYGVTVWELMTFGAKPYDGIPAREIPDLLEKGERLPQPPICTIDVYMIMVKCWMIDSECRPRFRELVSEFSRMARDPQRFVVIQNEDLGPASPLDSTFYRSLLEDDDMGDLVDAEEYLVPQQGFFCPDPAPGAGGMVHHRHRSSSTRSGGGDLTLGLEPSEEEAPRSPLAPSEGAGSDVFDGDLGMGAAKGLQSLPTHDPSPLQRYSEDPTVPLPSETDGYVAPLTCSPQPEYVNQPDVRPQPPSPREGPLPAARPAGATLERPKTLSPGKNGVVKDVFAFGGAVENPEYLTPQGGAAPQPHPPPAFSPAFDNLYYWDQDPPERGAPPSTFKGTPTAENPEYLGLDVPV

SMILES | pIC50
Cc1cc(Nc2ncnc3cnc(N(C)C[C@@H](C)O)nc23)ccc1Oc1ccc2c(c1)ncn2C [US11834453, Example 189] | 7.49
Cc1cc(Nc2ncnc3cnc(N4CCCO4)nc23)ccc1Oc1ccc2c(c1)ncn2C [US11834453, Example 178] | 7.17
Cc1cc(Nc2ncnc3cnc(N4C[C@H]5CC[C@@H]4CO5)nc23)ccc1Oc1ccn2ncnc2c1 [US11834453, Example 127] | 6.94
Cc1cc(Nc2ncnc3cnc(N4CC5C6CCC(O6)C5C4)nc23)ccc1Oc1ccc2c(c1)ncn2C (stereo not drawn) [US11834453, Example 16] | 7.22
CCOc1ncc2ncnc(Nc3ccc(Oc4ccc5c(c4)ncn5C)c(C)c3)c2n1 [US11834453, Example 13] | 6.92

The remaining lines, values ahead:

pIC50 | SMILES
6.77 | Cc1cc(Nc2ncnc3cnc(N4CC(C)(O)CO4)nc23)ccc1Oc1ccc2c(c1)ncn2C (stereo not drawn) [US11834453, Example 191]
7.43 | Cc1cc(Nc2ncnc3cnc(N(C)C[C@H](C)O)nc23)ccc1Oc1ccc2c(c1)ncn2C [US11834453, Example 195]
7.59 | Cc1cc(Nc2ncnc3cnc(N(C)CCO)nc23)ccc1Oc1ccc2c(c1)ncn2C [US11834453, Example 208]
